Experimental data: BindingDB's records for patent US12065447 (Shanghai Institute of Materia Medica, 2024)

Molecular target: T1, Receptor-interacting serine/threonine-protein kinase 1 (Homo sapiens, UniProt Q13546)
T1 sequence (Q13546 whole entry): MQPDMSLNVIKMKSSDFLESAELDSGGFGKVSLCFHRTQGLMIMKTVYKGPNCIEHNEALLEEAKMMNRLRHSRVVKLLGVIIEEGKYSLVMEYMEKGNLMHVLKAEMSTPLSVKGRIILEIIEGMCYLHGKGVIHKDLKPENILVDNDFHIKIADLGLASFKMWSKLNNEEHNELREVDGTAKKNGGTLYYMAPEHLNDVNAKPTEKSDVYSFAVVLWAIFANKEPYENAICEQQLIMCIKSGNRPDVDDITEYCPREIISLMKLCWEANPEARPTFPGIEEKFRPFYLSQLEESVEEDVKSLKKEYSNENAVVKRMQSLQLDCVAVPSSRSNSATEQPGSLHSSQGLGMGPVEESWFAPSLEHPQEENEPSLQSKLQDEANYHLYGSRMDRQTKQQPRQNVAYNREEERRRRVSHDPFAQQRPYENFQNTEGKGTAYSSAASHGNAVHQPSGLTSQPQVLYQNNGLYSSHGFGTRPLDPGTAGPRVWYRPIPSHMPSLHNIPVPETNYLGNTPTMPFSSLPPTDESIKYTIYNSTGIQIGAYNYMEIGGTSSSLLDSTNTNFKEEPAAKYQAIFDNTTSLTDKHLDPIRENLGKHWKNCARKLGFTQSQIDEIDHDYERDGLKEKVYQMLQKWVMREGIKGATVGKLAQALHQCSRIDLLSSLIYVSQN
Assay: Cell Viability Test
Description: TNFalpha induced U937 cell programmed necroptosis system was used to screen for compounds with RIP 1 kinase inhibitory activity.

`Cc1cc([C@](C)(O)C#Cc2sc3c(c2C)SC[C@H](NC(=O)c2nnc(Cc4ccccc4)[nH]2)C(=O)N3C)no1` [US12065447, Compound ZB-R-89] gave an IC50 of 1.7 nM.
Compound `Cc1c(C#CC2CCOCC2)sc2c1SC[C@H](NC(=O)c1nnc(Cc3ccccc3)[nH]1)C(=O)N2C` [US12065447, Compound ZB-R-44] has an IC50 of 4.08 nM.
For `CN1C(=O)[C@@H](NC(=O)c2n[nH]c(Cc3ccccc3)n2)COc2ccc(C#Cc3ccccn3)cc21` [US12065447, Compound ZB-R-50], the IC50 was 0.26 nM.
`CN1C(=O)[C@@H](NC(=O)c2n[nH]c(Cc3ccccc3)n2)COc2ccc(C#CC3(O)COC3)cc21` [US12065447, Compound ZB-R-78] was tested, and the IC50 was 0.35 nM.
For `CN1C(=O)[C@@H](NC(=O)c2ncc(Cc3ccccc3)o2)COc2ccc(C#Cc3cccnc3)cc21` [US12065447, Compound ZB-R-20], the IC50 was < 0.5 nM.
Work on `CN1C(=O)[C@@H](NC(=O)c2n[nH]c(Cc3ccccc3)n2)COc2ccc(C#CC3CCOCC3)cc21` [US12065447, Compound ZB-R-54] yielded an IC50 of 0.1 nM.
Work on `Cc1c(C#CC2(O)COC2)sc2c1SC[C@H](NC(=O)c1nnc(Cc3ccccc3)[nH]1)C(=O)N2C` [US12065447, Compound ZB-R-87] yielded an IC50 of 0.2 nM.
Compound `Cc1c(C#Cc2cncn2C)sc2c1SC[C@H](NC(=O)c1nnc(Cc3ccccc3)[nH]1)C(=O)N2C` [US12065447, Compound ZB-R-82] has an IC50 of 0.3 nM.
Work on `Cc1c(C#CC(C)(C)O)sc2c1SC[C@H](NC(=O)c1nnc(Cc3ccccc3)[nH]1)C(=O)N2C` [US12065447, Compound ZB-R-85] yielded an IC50 of 1.09 nM.
Work on `Cc1cc([C@](C)(O)C#Cc2ccc3c(c2)N(C)C(=O)[C@@H](NC(=O)c2nnc(Cc4ccccc4)[nH]2)CO3)no1` [US12065447, Compound ZB-R-80] yielded an IC50 of 0.31 nM.
For `Cc1c(C#Cc2ccncc2)sc2c1SC[C@H](NC(=O)c1nnc(Cc3ccccc3)[nH]1)C(=O)N2C` [US12065447, Compound ZB-R-47], the IC50 was 0.39 nM.
Work on `COCC#Cc1sc2c(c1C)SC[C@H](NC(=O)c1nnc(Cc3ccccc3)[nH]1)C(=O)N2C` [US12065447, Compound ZB-R-84] yielded an IC50 of 0.19 nM.
Work on `Cc1c(C#Cc2ccccn2)sc2c1SC[C@H](NC(=O)c1nnc(Cc3ccccc3)[nH]1)C(=O)N2C` [US12065447, Compound ZB-R-46] yielded an IC50 of 5.39 nM.
With `CN1C(=O)[C@@H](NC(=O)c2cc(Cc3ccccc3)ccn2)COc2ccc(C#Cc3cccnc3)cc21` [US12065447, Compound ZB-R-25] the IC50 was < 2 nM.
Work on `Cc1c(C#Cc2cnn(C)c2)sc2c1SC[C@H](NC(=O)c1nnc(Cc3ccccc3)[nH]1)C(=O)N2C` [US12065447, Compound ZB-R-39] yielded an IC50 of 0.17 nM.
In the case of `CN1C(=O)[C@@H](NC(=O)c2n[nH]c(Cc3ccccc3)n2)COc2ccc(C#Cc3cccnc3)cc21` [US12065447, Compound ZB-R-51], the IC50 is reported as < 0.5 nM.
`CN1C(=O)[C@@H](NC(=O)c2n[nH]c(Cc3ccccc3)n2)COc2ccc(C#Cc3ccncc3)cc21` [US12065447, Compound ZB-R-52] showed an IC50 of 0.42 nM.
`Cc1c(C#Cc2cccnc2)sc2c1SC[C@H](NC(=O)c1nnc(Cc3ccccc3)[nH]1)C(=O)N2C` [US12065447, Compound ZB-R-42] showed an IC50 of 0.32 nM.
In the case of `CN1C(=O)[C@@H](NC(=O)c2ncn(Cc3ccccc3)n2)COc2ccc(C#Cc3cccnc3)cc21` [US12065447, Compound ZB-R-24], the IC50 is reported as < 1 nM.
Compound `CN1C(=O)[C@@H](NC(=O)c2n[nH]c(Cc3ccccc3)n2)COc2ccc(C#Cc3cnn(C)c3)cc21` [US12065447, Compound ZB-R-53] has an IC50 of 0.11 nM.
`CN1C(=O)[C@@H](NC(=O)c2n[nH]c(Cc3ccccc3)n2)COc2ccc(C#CC(C)(C)O)cc21` [US12065447, Compound ZB-R-76] gave an IC50 of 0.54 nM.
`Cc1cc([C@@](C)(O)C#Cc2ccc3c(c2)N(C)C(=O)[C@@H](NC(=O)c2nnc(Cc4ccccc4)[nH]2)CO3)no1` [US12065447, Compound ZB-R-81] was tested, and the IC50 was 0.29 nM.
For `Cc1c(C#CC2CC2)sc2c1SC[C@H](NC(=O)c1nnc(Cc3ccccc3)[nH]1)C(=O)N2C` [US12065447, Compound ZB-R-45], the IC50 was 8.13 nM.
`COCC#Cc1ccc2c(c1)N(C)C(=O)[C@@H](NC(=O)c1nnc(Cc3ccccc3)[nH]1)CO2` [US12065447, Compound ZB-R-68] showed an IC50 of 0.2 nM.
